Source: patent US6548480B1, “Phosphonic acid derivatives with metallopeptidase inhibitory activity” (Zambon Group S.p.A., priority 1995, dated 2003)
Counter-ions that a name gives are not always drawn.

How the values were obtained:
[1] = molecular target: T1, NEP (Rattus norvegicus, UniProt P07861); assay: In vitro NEP-inhibitory activity in rat kidney cortex membranes ([3H][Leu5]-enkephaline hydrolysis); assay type: biochemical; parameters: from tissue; host or cells: kidney cortex membranes of male Sprague-Dawley rats; conditions: [3H][Leu5]-enkephaline 15 nM, 30° C., compounds of formula I tested as lithium salts
T1 sequence (P07861 1-750): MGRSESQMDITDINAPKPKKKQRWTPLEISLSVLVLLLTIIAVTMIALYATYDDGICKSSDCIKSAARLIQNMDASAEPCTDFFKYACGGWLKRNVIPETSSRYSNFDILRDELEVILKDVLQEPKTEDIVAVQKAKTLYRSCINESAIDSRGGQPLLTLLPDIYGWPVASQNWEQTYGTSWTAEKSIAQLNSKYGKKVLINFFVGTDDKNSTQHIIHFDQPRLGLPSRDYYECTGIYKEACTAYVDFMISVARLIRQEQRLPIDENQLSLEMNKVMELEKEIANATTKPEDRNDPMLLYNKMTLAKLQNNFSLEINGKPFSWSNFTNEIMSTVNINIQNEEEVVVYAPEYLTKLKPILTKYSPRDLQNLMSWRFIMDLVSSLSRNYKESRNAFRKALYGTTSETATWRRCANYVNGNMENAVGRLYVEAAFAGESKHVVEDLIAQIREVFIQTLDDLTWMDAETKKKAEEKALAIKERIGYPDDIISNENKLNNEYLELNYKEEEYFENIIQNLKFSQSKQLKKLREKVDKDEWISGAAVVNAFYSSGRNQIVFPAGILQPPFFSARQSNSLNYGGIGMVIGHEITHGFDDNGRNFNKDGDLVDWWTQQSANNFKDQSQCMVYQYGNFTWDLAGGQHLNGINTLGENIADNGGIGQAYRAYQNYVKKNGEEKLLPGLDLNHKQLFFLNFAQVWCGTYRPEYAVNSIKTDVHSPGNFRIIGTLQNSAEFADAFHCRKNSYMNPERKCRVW
Method: The NEP-inhibitory activity was evaluated in rat kidney cortex membranes prepared according to the procedure described by T. Maeda et al. in Biochim Biophys.
Cortex was carefully dissected, finely minced and suspended in a homogenization buffer (10 mM sodium phosphate pH 7.4 containing 1 mM MgCl2, 30 mM NaCl, 0.02% NaN3) 1:15 weight/volume.
The tissue was then homogenized for 30 seconds using an Ultra-Turrax homogenizer.
The membranes were collected from the buffer/sucrose interface, washed twice with 50 mM TRIS/HCl buffer (pH 7.4) and resuspended into the same buffer for storage.
The NEP-inhibitory activity was evaluated according to the method described by C.
Incubation (20 minutes at 30° C.) was stopped by adding HCl 0.1M (100 μl).
The percentage of inhibition of the metabolite formation in the membrane preparations treated with the compounds of formula I and with the comparative compounds with respect to the untreated membrane preparations was expressed as IC50 (nM) value.

[2] = molecular target: T2, ACE (Oryctolagus cuniculus, UniProt P12822); assay: In vitro ACE-inhibitory activity (FAPGG substrate, spectrophotometric); assay type: biochemical; conditions: ACE purified by lung rabbit, FAPGG 0.8 mM, 37° C.; compounds of formula I tested as lithium salts
T2 construct: ACE (250 mU/ml purified by lung rabbit, EC 3.4.15.1 SIGMA); purchased SIGMA; host or cells: rabbit lung
T2 sequence (P12822 34-1310): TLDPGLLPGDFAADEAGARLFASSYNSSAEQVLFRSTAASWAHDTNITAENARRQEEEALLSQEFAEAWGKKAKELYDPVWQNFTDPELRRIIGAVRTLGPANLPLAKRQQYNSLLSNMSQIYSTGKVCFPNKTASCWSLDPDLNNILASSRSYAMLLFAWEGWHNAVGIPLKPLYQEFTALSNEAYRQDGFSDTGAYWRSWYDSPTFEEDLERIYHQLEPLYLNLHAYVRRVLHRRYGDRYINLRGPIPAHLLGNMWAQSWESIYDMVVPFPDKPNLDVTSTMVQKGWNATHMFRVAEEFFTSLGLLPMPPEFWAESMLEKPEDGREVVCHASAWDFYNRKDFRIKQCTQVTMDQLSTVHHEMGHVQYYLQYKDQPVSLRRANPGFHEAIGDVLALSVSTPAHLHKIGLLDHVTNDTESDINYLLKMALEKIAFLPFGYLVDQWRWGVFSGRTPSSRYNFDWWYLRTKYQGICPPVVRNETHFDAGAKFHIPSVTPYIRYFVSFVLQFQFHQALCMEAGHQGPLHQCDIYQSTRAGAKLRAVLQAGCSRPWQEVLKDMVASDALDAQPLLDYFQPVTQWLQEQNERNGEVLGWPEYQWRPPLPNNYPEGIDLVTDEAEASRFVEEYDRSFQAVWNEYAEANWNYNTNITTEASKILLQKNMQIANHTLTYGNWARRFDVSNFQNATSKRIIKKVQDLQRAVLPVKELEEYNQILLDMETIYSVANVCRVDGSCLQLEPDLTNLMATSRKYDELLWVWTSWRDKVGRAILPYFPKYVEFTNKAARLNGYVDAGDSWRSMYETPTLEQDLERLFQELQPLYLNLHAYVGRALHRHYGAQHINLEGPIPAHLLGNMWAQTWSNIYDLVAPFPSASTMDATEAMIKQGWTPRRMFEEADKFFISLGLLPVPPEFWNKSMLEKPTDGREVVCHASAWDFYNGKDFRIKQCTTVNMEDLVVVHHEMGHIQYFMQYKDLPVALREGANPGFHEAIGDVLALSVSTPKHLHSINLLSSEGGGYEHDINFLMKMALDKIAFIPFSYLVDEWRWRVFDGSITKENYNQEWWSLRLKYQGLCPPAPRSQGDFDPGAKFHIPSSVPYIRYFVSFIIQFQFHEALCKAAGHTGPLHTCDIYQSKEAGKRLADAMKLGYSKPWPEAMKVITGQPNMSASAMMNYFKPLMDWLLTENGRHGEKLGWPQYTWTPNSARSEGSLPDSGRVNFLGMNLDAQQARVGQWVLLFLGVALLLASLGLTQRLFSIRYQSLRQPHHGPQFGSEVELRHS
Method: The reaction was started by adding furylacryloylphenylalanylglycylglycine 0.8 mM (FAPGG-SIGMA).
Contemporaneously, by using a Beckman DU-50 spectrophotometer provided with a program for calculating delta A/minutes and regression coefficients of the enzyme kinetics curves, the absorbance at 340 nm was recorded in continuo for 5 minutes.

[3] = molecular target: T1, NEP; assay: Ex vivo NEP-inhibitory activity in kidneys of SHR after i.v. injection; parameters: After the removal of the kidneys from SHR, the renal tissue was homogenized; from tissue; host or cells: kidney homogenate of spontaneously hypertensive rats (SHR) dosed i.v; species or system spontaneously hypertensive rats (SHR); conditions: iv, 5 minutes after i.v. injection, 21 μmoles/kg, read-out: NEP-inhibitory activity (kidney) % of inhibition
Method: After the removal of the kidneys from SHR, the renal tissue was homogenized and incubated for 15 minutes at 37° C. in the presence of Glutaryl-Ala-Ala-Phe-2-naphthyliamide (GAAP), as a substrate, and aminopeptidase M at pH 7.6. The reaction was stopped by adding an aqueous solution at 10% of trichloroacetic acid.
The released 2-naphthylamine was determined by adding fast garnet dye (2 ml).

[4] = molecular target: T3, ACE (Rattus norvegicus, UniProt P47820); assay: Ex vivo ACE-inhibitory activity in lungs of SHR after i.v. injection; parameters: species or system spontaneously hypertensive rats (SHR); conditions: iv, 5 minutes after i.v. injection, 21 μmoles/kg, read-out: ACE-inhibitory activity (lung) % of inhibition
T3 construct: After the removal of the lungs from SHR, the lung tissue was homogenized; from tissue; host or cells: lung homogenate of spontaneously hypertensive rats (SHR) dosed i.v
T3 sequence (P47820 36-1313): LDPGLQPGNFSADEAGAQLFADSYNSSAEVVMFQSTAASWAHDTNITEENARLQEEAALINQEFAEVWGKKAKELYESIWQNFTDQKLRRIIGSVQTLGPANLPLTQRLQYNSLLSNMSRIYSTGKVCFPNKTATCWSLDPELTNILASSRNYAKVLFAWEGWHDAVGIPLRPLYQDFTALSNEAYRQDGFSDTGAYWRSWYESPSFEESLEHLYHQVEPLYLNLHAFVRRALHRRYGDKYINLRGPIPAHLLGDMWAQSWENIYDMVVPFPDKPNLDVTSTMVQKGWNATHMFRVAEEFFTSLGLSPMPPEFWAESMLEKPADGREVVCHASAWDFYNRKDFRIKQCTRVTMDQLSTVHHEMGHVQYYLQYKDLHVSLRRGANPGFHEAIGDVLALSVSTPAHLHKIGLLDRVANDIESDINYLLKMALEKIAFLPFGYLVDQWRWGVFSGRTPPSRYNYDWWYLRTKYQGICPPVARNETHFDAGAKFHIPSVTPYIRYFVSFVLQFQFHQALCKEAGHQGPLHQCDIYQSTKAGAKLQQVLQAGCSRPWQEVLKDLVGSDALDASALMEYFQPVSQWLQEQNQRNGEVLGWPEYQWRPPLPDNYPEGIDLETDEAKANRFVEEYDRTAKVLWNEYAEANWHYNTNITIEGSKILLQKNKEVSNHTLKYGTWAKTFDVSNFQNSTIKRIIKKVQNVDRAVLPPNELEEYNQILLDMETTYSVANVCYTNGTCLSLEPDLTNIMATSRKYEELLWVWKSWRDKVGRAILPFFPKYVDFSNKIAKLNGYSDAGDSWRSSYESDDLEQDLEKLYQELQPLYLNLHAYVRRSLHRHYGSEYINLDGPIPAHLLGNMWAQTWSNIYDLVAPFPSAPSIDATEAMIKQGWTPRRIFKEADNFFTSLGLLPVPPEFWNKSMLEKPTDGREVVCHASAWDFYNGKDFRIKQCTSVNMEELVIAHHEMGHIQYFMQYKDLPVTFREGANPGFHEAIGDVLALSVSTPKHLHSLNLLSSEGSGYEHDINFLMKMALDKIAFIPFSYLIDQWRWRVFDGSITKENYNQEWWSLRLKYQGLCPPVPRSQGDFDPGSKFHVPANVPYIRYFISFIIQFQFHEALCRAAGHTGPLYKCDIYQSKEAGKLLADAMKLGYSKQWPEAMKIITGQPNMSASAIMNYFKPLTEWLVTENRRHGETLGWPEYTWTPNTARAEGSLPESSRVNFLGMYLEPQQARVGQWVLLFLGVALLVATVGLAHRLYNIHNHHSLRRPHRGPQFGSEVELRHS
Method: After the removal of the lungs from SHR, the lung tissue was homogenized and incubated for 2 hours at 37° C. in the presence of [^3H]Hyp-Gly-Gly, as a substrate.
The reaction was stopped by adding hydrochloric acid.
The released radio-labelled hyppuric acid was extracted with ethyl acetate and counted by liquid scintillation spectrometry, according to conventional methods.

Row | Structure (SMILES) | NEP-inhibitory activity IC50 (nM) [1] | IC50 [2] [nM] | inhibition at 21 µmol/kg [3] [%] | inhibition at 21 µmol/kg [4] [%] | IC50 [1] [nM]
1 | C[C@H](CS)C(=O)N1CCC[C@H]1C(=O)O [Captopril] | not active | – | – | – | –
2 | O=C(O)[C@H](Cc1ccccc1)NC(=O)[C@H](Cc1ccccc1)NP(=O)(O)CCCCc1ccccc1 [Compound R-1, N-[N′-(4-phenyl)butylphosphonyl-L-phenlalanyl]-L-phenylalanine dilithium salt] | – | 20 | 20 | 25 | 5.5
